# Test results: patent US7601685B2, “Growth factor modified protein matrices for tissue engineering” (Eidgenossische Technische Hochschule Zurich, priority 1998, dated 2009)
# Key:
# [1] = test system: sheep drill defect; experiment: Sheep bone drill defect healing; type: in vivo; settings: healing time 8 weeks
# Description: To form the fibrin gel, the dilute precursors were mixed together by injecting the fibrinogen into the tube containing the thrombin. In case of the sheep drill defect (as described below) this mixture was then injected immediately into a drill defect created in sheep cancellous bone, where a fibrin gel formed within 1-5 minutes. In the first series of animal experiments, the efficacy of a fusion protein containing PTH1-34 as the bioactive factor ([…], SEQ ID NO:38) in healing cortical bone was tested in a small animal model. The sequence, YKNR, makes the linkage plasmin degradable (“TG-pl-PTH1-34). The TG-pl-PTH1-34 was made by chemical synthesis. […] The purity of the TG-pl-PTH1-34 was determined to be 95%.
# TG-pl-PTH1-34 was tested as well in a long bone defect model to test the effect of this hormone on healing bone. In the sheep drill defect model, 8 mm cylindrically drill defects that were approximately 15 mm deep were placed in both the proximal and distal region of the femur and humerus bones. Since the defect was placed in the epiphysis of the long bones, the defect was surrounded by trabecular bone with a thin layer of cortical bone at the rim of the defect. These defects were then filled with an in situ polymerizing fibrin (about 750 μL) that contained various doses of TG-pl-PTH1-34. or TGPTH1-34. Animals were allowed to heal for eight weeks and then were sacrificed. The defect was analyzed with μCT and histology.
# For this series of experiments, three types of compositions were tested. First, TG-pl-PTH1-34 was tested over a large concentration range. […] Thus, TGPTH1-34 could only be liberated by degradation of the fibrin matrix itself. TGPTH1-34 was produced and purified similar to TG-pl-PTH1-34. Purity was determined to be 95%. TGPTH1-34 was tested at several concentrations that were similar to the concentrations of TG-pl-PTH1-34 to compare efficacy. Finally, matrices were made in the presence of granular material, with either TGPTH1-34 or TG-pl-PTH1-34. The granular material was a standard tricalcium phosphate/hydroxyapatite mixture which was embedded in the matrix during gelation. The effect of adding these granules on the efficacy of PTH1-34 was explored. As a control, unmodified fibrin was tested.
# The fibrin gel for all experiments was made as described in Example 7. The sheep bone defects were prepared as described in Example 7. The defects were filled with 750 μL of fibrin matrix alone (control) or with TG-pl-PDGFAB, TG-pl-IGF1 or TG-pl-BMP2. The sheep were allowed to heal for eight weeks and were then sacrificed. The explanted defect area was examined with μCT to evaluate the degree of new bone formation.
# [2] = test system: critical size rat cranial defect; experiment: Rat critical size cranial defect healing; type: in vivo; settings: for Healing (% defect filled with bone): Time 63 Days
# [3] = test system: chick DRGs; experiment: Neurite extension of DRGs in fibrin matrices with immobilized β-NGF fusion proteins; type: cell-based
# From the text: FIG. 3 is a graph of the effect of immobilized β-NGF fusion proteins on DRG neurite extension within fibrin matrices. Mean values and standard error of the mean are shown. ▪ denotes native NGF. ♦ denotes TG-P-NGF. ● denotes TG-Pi-NGF. * denotes p<0.0001 versus unmodified fibrin with NGF in the culture medium.
# To determine the ability of covalently immobilized β-NGF fusion protein to be delivered in a controlled manner, β-NGF fusion proteins were incorporated into fibrin matrices during polymerization, and the ability of these matrices to enhance neurite extension in vitro was assayed using chick DRGs. […] A dose response effect for TG-P-NGF fusion protein was observed, with an optimal dose attained when 1-5 μg/mL of β-NGF fusion protein was present in the polymerization mixture. […] Despite the lower activity of the β-NGF fusion proteins in the PC12 cell activity assay, when the plasmin degradable β-NGF fusion protein was covalently coupled to fibrin, it promoted greater levels of neurite extension than the same dose of native NGF in the culture medium.
# [4] = test system: chronic leg ulcers of the venous stasis origins; experiment: Chronic wound healing on skin in human patients; type: in vivo
# Description: TG-pl-PDGF AB as described in Example 7 was incorporated into fibrin gels at 33 μg/mL gel and applied topically to patients with chronic leg ulcers of the venous stasis origins (at the Dermatology Klinik of the University Hospital Zürich.)
# The fibrin gels were made from Baxter TISSUCOL® kits (Baxter AG, CH 8604 Volketswil) by diluting the fibrinogen component with Citrate-Glycine buffer (pH 7.3) and diluting the thrombin component with 40 mM Calcium chloride-glycine buffer (pH 7.0). The final concentration of fibrinogen in the applied fibrin gel was about 12.5 mg fibrinogen/mL gel. The thrombin concentration was varied to improve handling of the gels. The final concentration of thrombin in the applied fibrin gel was about 4 to 50 U/mL. TG-pl-PDGF AB was added to the diluted fibrinogen component at 66 μg/mL for a total of 33 μg/mL gel concentration. The diluted fibrinogen and thrombin components were packed in separate sterile syringes at the same volume and deep frozen at −20° C. until use.
# The gels were applied via a dual syringe system as provided in the TISSUCOL® kit from Baxter. Briefly, each syringe contained either diluted fibrinogen or diluted thrombin. The two syringes were connected to an applicator set and joined by a tip with a blunt cannula. To form a gel, both components were pushed out of the syringes simultaneously, making a 1:1 mixture fibrin gel directly on the ulcer area. Ulcers were covered with a thin sheath of gel, which was allowed to dry for 2 minutes before standard dressing and compression bandaging was applied.
# [5] = test system: day 8 chick embryonic dorsal root ganglia; experiment: Dorsal root ganglia neurite extension in fibrin gels with peptide/heparin-bound growth factor; type: cell-based; settings: DRG
# From the text: FIG. 2 is a graph of the effect of matrix bound bFGF on DRG neurite extension at 48 hr. Mean values and standard deviation of the mean are shown. (* denotes p<0.05 compared with unmodified fibrin.)
# In order to evaluate this approach to release of heparin-binding growth factors from fibrin cell in-growth matrices that also comprise a covalently linked bi-domain peptide, one domain of which is a factor XIIIa substrate and one domain of which is a heparin-binding domain based on antithrombin III, dorsal root ganglia were cultured three-dimensionally within fibrin gels under a variety of conditions, as shown in the below.
# Cross-linking Protocol for Use of Heparin-Binding Peptides: • 1) Dialyze fibrinogen (8 mg/ml) versus 4 L of Tris buffered saline (33 mM Tris), pH 7.4 for 24 hours. • 2) Sterile filter fibrinogen using a 0.2 μm syringe filter. • 3) Make the following peptide solutions:
# • 4) Make thrombin solution: 100 units in 5 ml TBS. • 5) Add 1.4 ml of fibrinogen to each peptide solution. • 6) Make gels: Add 20 μl of TBS+50 mM CaCl2, 40 μl of thrombin solution (20 units/ml), and 340 μl of peptide solution+fibrinogen. (above solutions make 6 gels). • 7) Incubate at 37° C. for 1 hr. • 8) Wash 5 times in 24 hours. Use 1 ml of TBS the first 4 times and neuronal media the last time. • 9) Dissect day 8 chick embryonic dorsal root ganglia. • 10) Place one ganglia in each gel and place at 37° C. for 1 hr. • 11) Add 1 ml of neuronal media to each gel. • 12) Change media after 24 hours.
# [6] = biological target: fibrin gels (Homo sapiens, UniProt P02671+P02675+P02679); settings: cross-linked during polymerization; gels degraded with plasmin; n=10
# fibrin gels, sequence (P02671 20-644 isoform P02671-2 limits assumed): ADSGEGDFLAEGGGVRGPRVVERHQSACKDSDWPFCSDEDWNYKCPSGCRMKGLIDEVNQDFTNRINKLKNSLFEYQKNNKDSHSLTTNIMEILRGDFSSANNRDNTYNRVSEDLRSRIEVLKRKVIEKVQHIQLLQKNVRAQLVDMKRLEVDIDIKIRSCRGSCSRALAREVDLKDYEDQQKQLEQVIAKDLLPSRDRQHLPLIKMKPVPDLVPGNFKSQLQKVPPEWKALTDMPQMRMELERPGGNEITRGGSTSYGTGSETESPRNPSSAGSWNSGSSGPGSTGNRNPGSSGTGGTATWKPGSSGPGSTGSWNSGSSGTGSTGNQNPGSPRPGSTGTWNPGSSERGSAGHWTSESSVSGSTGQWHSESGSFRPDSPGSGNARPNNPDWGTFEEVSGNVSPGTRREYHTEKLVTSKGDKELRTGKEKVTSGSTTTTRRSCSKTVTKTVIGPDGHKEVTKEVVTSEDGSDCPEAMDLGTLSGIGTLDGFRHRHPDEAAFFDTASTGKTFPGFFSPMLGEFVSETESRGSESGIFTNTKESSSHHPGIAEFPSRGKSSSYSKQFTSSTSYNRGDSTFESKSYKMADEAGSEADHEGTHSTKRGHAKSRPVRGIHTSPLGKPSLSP
# fibrin gels, sequence (P02675 45-491 limits assumed): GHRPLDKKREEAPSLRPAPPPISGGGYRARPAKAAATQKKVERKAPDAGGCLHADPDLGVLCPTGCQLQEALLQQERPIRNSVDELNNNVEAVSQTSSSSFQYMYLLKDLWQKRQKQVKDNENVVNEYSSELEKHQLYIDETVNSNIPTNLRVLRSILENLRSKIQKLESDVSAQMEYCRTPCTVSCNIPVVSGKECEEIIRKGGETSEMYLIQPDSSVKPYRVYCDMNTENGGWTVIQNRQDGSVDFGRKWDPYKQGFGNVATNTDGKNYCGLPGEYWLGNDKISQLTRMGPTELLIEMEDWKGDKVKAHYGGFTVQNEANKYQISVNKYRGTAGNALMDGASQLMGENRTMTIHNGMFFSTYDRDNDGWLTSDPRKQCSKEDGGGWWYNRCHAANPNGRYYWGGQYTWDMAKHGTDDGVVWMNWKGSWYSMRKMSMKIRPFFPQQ
# fibrin gels, sequence (P02679 27-437 isoform P02679-2 limits assumed): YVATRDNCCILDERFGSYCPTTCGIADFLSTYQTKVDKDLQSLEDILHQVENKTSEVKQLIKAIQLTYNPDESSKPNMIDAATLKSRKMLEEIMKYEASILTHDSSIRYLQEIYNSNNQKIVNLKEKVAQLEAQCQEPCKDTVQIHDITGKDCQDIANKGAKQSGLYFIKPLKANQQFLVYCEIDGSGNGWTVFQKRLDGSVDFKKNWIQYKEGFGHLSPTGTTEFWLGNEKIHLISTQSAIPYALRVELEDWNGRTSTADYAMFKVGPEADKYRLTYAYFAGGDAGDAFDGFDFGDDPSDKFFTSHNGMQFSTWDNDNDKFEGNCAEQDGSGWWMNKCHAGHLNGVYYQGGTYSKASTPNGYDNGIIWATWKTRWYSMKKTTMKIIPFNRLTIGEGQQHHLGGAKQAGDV
# Description: Size exclusion chromatography was used to determine the amount of peptide cross-linked to fibrin gels using the previously developed incorporation method. A bi-domain peptide containing the heparin-binding domain from antithrombin III and a fluorescent label was incorporated into fibrin gels during polymerization. The free peptide was washed from the gels, and the fibrin network was degraded with plasmin. The degradation products were analyzed by high performance liquid chromatography (size exclusion chromatography) to determine the amount of peptide (by fluorescence) present per mole of fibrinogen (by UV absorbance).
# [7] = Dose 400 μg/mL in fibrin matrix
# [8] = Dose 1000 μg/mL in fibrin matrix
# [9] = fusion protein covalently immobilized in fibrin matrix
substance,measurement,setting,value
NQEQVSPLSVSEIQLMHNLGKHLN SMERVEWLRKKLQDVHNF (NQEQVSPLSVSEIQLMHNLGKHLNSMERVEWLRKKLQDVHNF; Modified parathyroid hormone from Homo sapiens) [TGPTH1-34],Healing (% defect filled with bone),[1]; [7],40%
same,Healing (% defect filled with bone),[1]; [8],65%
NQEQVSPLYKNRSVSEIQLMHNLGKHLNSMERVEWLRKKLQDVHNF (Modified parathyroid hormone from Homo sapiens) [TG-pl-PTH1-34],level of healing,[2]; 3 week timepoint,very similar to that observed with a fibrin matrix alone
same,Healing (% defect filled with bone),[2]; Dose 10 μg/ml in fibrin matrix,43%
same,Healing (% defect filled with bone),[2]; Dose 200 μg/ml in fibrin matrix,50%
same,Healing (% defect filled with bone),[2]; Dose 500 μg/ml in fibrin matrix,62%
same,increase of healing response,"[2]; high dose, 7 weeks, versus fibrin alone",65%
same,Healing (% defect filled with bone),[1]; Dose 50 μg/mL in fibrin matrix,31.3%
same,Healing (% defect filled with bone),[1]; Dose 100 μg/mL in fibrin matrix,59.7%
same,Healing (% defect filled with bone),[1]; [7],73%
same,Healing (% defect filled with bone),[1]; [8],77%
TG-P-NGF: β-NGF fusion protein with factor XIIIa substrate NQEQVSPL and functional plasmin substrate LIK/MKP (SEQ ID NO:24),optimal dose of β-NGF fusion protein in the polymerization mixture for neurite extension,[3]; dose response in fibrin matrices,1 to 5 µg/mL
same,enhancement of neurite extension over unmodified fibrin with 10 ng/mL of native NGF in medium,[3]; [9],up to 50%
same,enhancement of neurite extension versus unmodified fibrin with no NGF present in the culture medium,[3]; [9],over 350%
TG-pl-IGF1: IGF1 fusion protein with TG-pl-hook (SEQ ID NO:42),Healing (% defect filled with bone),[1]; Dose 67 μg/mL in fibrin matrix,41.5%
TG-pl-PDGFAB: PDGF AB heterodimer with 21 amino acid TG-pl-hook on both N termini (SEQ ID NO:40 and 41),healing response,"[4]; 33 μg/mL fibrin gel, topical, all three patients",enhanced healing response
same,time to complete healing of wound,"[4]; 33 μg/mL fibrin gel, topical, one patient, wound about 2 cm^2",≤ 4 weeks
same,time to complete healing of wound,"[4]; 33 μg/mL fibrin gel, topical, third patient, deep wound down to the periost (1 cm^2)",15 weeks
same,decrease in wound bed depth as well as surface area,"[4]; 33 μg/mL fibrin gel, topical, two large wounds on one patient (up to 17 cm^2), after 8 weeks",30-50%
same,healing versus standard treatment alone,"[4]; fibrin gel treatment, doctors' assessment",strong enhancement of healing
same,Healing (% defect filled with bone),[1]; Dose 60 μg/mL in fibrin matrix,39.5%
VEGF,effect on neurite extension,[5]; 1.0 μg/ml bound VEGF,did not increase neurite extension
"bFGF: basic fibroblast growth factor, heparin-binding growth factor",effect on neurite extension,"[5]; 1 μg/ml and 5 μg/ml of bound bFGF (peptide + heparin in fibrin), dose dependent, 48 hr",increased
same,effect on neurite outgrowth,"[5]; bFGF added without peptide and heparin, gels washed, 48 hr",does not enhance neurite outgrowth
dLNQEQVSPK(βA)FAKLAARLYRKA,incorporation of peptide into fibrin,[6],8.7±0.2 moles of peptide per mole of fibrinogen
